Measurements as given in US9549978B2, “Amino acid sequences for controlling pathogens” (CENTRO DE INGENIERIA GENETICA Y BIOTECHNOLOGIA, priority 2011, dated 2017).
pEC50, pIC50: −log10 of the molar value.

Experiments:
[1] = read-out: EC50 (LPS binding/neutralization); 0.5 EU/ml LPS, 37° C., 30 min, LAL
Protocol: Besides the antimicrobial activity and the possibility of increase disease resistance, we studied the ability of antimicrobial peptides of the present invention to neutralize LPS, by the Limulus amebocyte lysate (LAL) test. This assay detects the presence of free LPS unneutralized. Various concentrations of peptides were incubated with 0.5 EU/ml of LPS at 37° C. for 30 min. LPS alone was used as positive control of the assay. Subsequently, were added 100 μL of the mixture to equal volume of LAL reagent. The kinetic of the turbidity was measured using the equipment Tube Reader ATi-321 (Lab Kinetics, UK).

Aeromonas hydrophila = assay: Resistance to A. hydrophila challenge in tilapia, peptides by intraperitoneal injection; assay type: in vivo, tilapia (O. niloticus); conditions: LD50 challenge, mortality recorded 7 days, compared to PBS group
Protocol: We proceeded to evaluate the utility of antimicrobial peptides to enhance disease resistance in vivo. In a first test, we used 130 tilapias (O. niloticus) with a body weight of 10 g, which were randomly distributed in 13 experimental groups of ten animals per group. This assay was performed in order to determine the minimum time of treatment required to enhance the survival of fish against challenge with A. hydrophila. Each peptide was administered at a concentration of 1 μg per fish by intraperitoneal injection, for 2, 4, 8 and 15 days. An additional group was placed which PBS was administered as a control. The experimental groups were:
After the time of peptide administration, we performed a challenge test by intraperitoneal injection of the median lethal dose (LD50) of A. hydrophila, and mortality was recorded during 7 days. We calculated the relative percent of survival (RPS) as: RPS (%)=(% mortality controls−% mortality treated)/(% mortality controls)×100
A second test was performed to determine the optimal dose of peptide required to increase the survival of the fish following challenge with A. hydrophila. We used 130 tilapias (O. niloticus), with a body weight of about 10 g, which were randomly distributed in 13 experimental groups of 10 animals each. Each peptide was administered at a concentration of 0.5, 1, 5 and 10 μg per fish for 15 days. The experimental groups were:
After 15 days of peptide administration, we performed a challenge test by is intraperitoneal injection of the LD50 of A. hydrophila, and mortality was recorded during 7 days. RPS was calculated as described above.

OVA [2] = assay: Cytokine secretion by OVA-stimulated splenocytes of immunized mice, ELISA; assay type: in vivo, BALB/c mice
Protocol: FIG. 8. IFN-γ secretion by spleen cells isolated from immunized animals. […] Bars represent the concentration of IFN-γ±standard deviation (n=5). Statistical analysis of the data was performed by ANOVA test and Bonferroni's multiple comparison test (*: p<0.05, ***:p<0.001).
Animals were immunized on days 0 and 14, and blood extractions were performed on days 0, 14 and 21. The serums of animals were used for determination of specific antibody titers (total IgG, IgG1 and IgG2a). At 59 days from the beginning of the experiment was extracted the spleen from the mice to determine the cellular immune response against the antigen OVA. The spleen was extracted under aseptic conditions and the splenocytes were isolated and were seeded 2.5×10^5 cells, at a cell concentration of 2×10^6 cells/mL in 96-well round bottom plate. Cells were stimulated with Concanavalin A (5 μg/ml) or OVA (10 μg/mL) and incubated at 37° C., 5% CO2 for 4 days. Culture supernatants were collected and used for analysis of the levels of interleukin-4 and interferon-γ by ELISA.

A. hydrophila (Gram−) = assay: Microdilution antimicrobial activity (MIC/IC50); assay type: cell-based
Protocol: (§1) The peptides of the invention were also obtained by chemical synthesis using methods known to those skilled in this technical field. The antimicrobial activity of the peptides was determined by the microdilution method. To determine the minimum inhibitory concentration (MIC), each peptide was serially diluted 1:2. Ten microliters of each diluted peptide were incubated with 90 μL of the bacteria or yeast suspension (5×10^5 CFU (colony forming units) per mL) in Mueller Hinton broth (bacteria) or Sabouraund broth (fungi) and incubated for 18 h at 28° C. (for fish pathogens and fungi) or 37° C. (for mammalian pathogens). The MIC is defined as the lowest peptide concentration at which inhibition of bacterial growth occurs. All assays were performed in triplicate, and culture medium (without microorganism) and microorganisms to which no peptide was added were used as controls.

[3] = tested on: Candida albicans (fungus); assay: Microdilution antimicrobial activity (MIC/IC50); assay type: cell-based; conditions: for MIC: Sabouraund broth, 28° C.; for pIC50: read-out: IC50 (peptide concentration that produces 50% of bacterial growth inhibition)
Protocol: as §1

[4] = tested on: Pseudomonas aeuroginosa (Gram−); assay: Microdilution antimicrobial activity (MIC/IC50); assay type: cell-based; conditions: for pIC50: read-out: IC50 (peptide concentration that produces 50% of bacterial growth inhibition)
Protocol: as §1

[5] = tested on: Edwardsiella tarda (Gram−); assay: Microdilution antimicrobial activity (MIC/IC50); assay type: cell-based; conditions: for pIC50: read-out: IC50 (peptide concentration that produces 50% of bacterial growth inhibition)
Protocol: as §1

[6] = tested on: Bacillus subtilis (Gram+); assay: Microdilution antimicrobial activity (MIC/IC50); assay type: cell-based; conditions: for pIC50: read-out: IC50 (peptide concentration that produces 50% of bacterial growth inhibition)
Protocol: as §1

[7] = tested on: Staphylococcus aureus (Gram+); assay: Microdilution antimicrobial activity (MIC/IC50); assay type: cell-based; conditions: for MIC: 18 h, Mueller Hinton broth; for pIC50: read-out: IC50 (peptide concentration that produces 50% of bacterial growth inhibition)
Protocol: as §1

E.coli (Gram−) = assay: Microdilution antimicrobial activity (MIC/IC50); assay type: cell-based; conditions: for pIC50: read-out: IC50 (peptide concentration that produces 50% of bacterial growth inhibition)
Protocol: as §1

Vibrio sp. (Gram−) = assay: Microdilution antimicrobial activity (MIC/IC50); assay type: cell-based; conditions: for pIC50: read-out: IC50 (peptide concentration that produces 50% of bacterial growth inhibition)
Protocol: as §1

OVA [8] = assay: Co-immunization with OVA in mice, second immunization schedule, antibody titers by ELISA; assay type: in vivo, BALB/c mice
Protocol: FIG. 7. Titers of total immunoglobulin G (IgG) (A), IgG1 and IgG2a (B) induced in mice by immunization with OVA co-administered with the peptides Oreochromicin I, Oreochromicin II and Oreochromicin III. Male Balb/c mice (8/group) were immunized by intraperitoneal injection on days 0 and 14 with OVA alone (5 μg/animal) or in combination with peptides at the doses of 0.238×10^20 molecules/animal (equivalent to 0.1, 0.12 and 0.14 μg/animal for Oreochromicina I, II and III, respectively) and 2.38×10^20 molecules/animal (equivalent to 1, 1.2 and 1.4 μg/animal for Oreochromicina I, II and III, respectively). The negative control group was injected with 0.1 mL of PBS. The OVA-specific humoral immune response (total IgG) was tested at 14 and 21 days after the first immunization. IgG1 and IgG2a antibody titers were analyzed at 21 days after the first immunization. The OVA-specific antibody titers were determined by ELISA. (A) Total IgG titers. Bars represent the IgG titer standard error (n=8). Statistical analysis was performed using a Kruskal-Wallis test and the Dunn multiple comparison test. Asterisks represent significant differences with the PBS group (* indicates p<0.05, ***indicates p<0.001). (B) IgG1 and IgG2a titers. Bars represent the antibody titer±standard error (n=8). Statistical analysis was performed using Mann Whitney test (*denotes p<0.05).
64 BALB/c male mice were selected, which were 6 weeks old, and were separated into 8 experimental groups of 8 mice each. Administration of the immunogens was is conducted by intraperitoneal injection in a volume of 0.1 mL. The antimicrobial peptides were administered in equimolar amounts (0.238×10^20 molecules and 2.38×10^20 molecules). The experimental groups were:
Animals were immunized on days 0 and 14, and blood extractions were performed on days 0, 14 and 21. The serums of animals were used for determination of specific antibody titers (total IgG, IgG1 and IgG2a). At 59 days from the beginning of the experiment was extracted the spleen from the mice to determine the cellular immune response against the antigen OVA. […]

MY32 = assay: Co-immunization with MY32 antigen in tilapia, IgM titers by ELISA; assay type: in vivo, tilapia (O. niloticus); conditions: MY32 1 μg/g + peptide 10 μg/animal, adjuvanted in Montanide 888; p<0.05
Protocol: FIG. 9. IgM titers induced by immunization of tilapia (O. niloticus) with MY32 protein co-administered with the antimicrobial peptide Oreochromicin I. Fish (10 fish/group) were immunized by intraperitoneal injection on days 0 and 14. The negative control group was injected with 0.3 mL of PBS. The humoral immune response specific for MY32 was analyzed at 14, 21 and 28 days after the first immunization. The IgM antibody titers specific for MY32 were determined by ELISA. Bars represent the IgM titer±standard error (n=10). Statistical analysis of the data was performed by ANOVA and the Newman-Keuls multiple comparison test (*indicates p<0.05).
To assess the ability of the peptide Oreochromicin I as molecular adjuvant in tilapia was used as vaccine antigen the protein MY32, previously known (Carpio et al. (2011) Vaccine 29: 2810-2820).
Six experimental groups were formed of 10 tilapias (O. niloticus) each with an s average weight of 45 g. The route of administration was intraperitoneal, the immunogen was applied in an injection volume of 0.3 mL. The experimental groups were:
The animals were immunized on days 0 and 14, and blood extractions were performed on days 0, 14, 21 and 28. The serums of the animals were used for the determination of IgM specific antibody titers.

Row | Sequence | pEC50 [1] | increase in survival (RPS, relative percent of survival) (Aeromonas hydrophila; 1 μg per fish i.p. for 15 days) | MIC (A. hydrophila (Gram−)) | MIC [3] | pIC50 [3] | MIC [4] | MIC [5] | pIC50 [5] | MIC [6] | pIC50 [6] | MIC [7] | MIC (E.coli (Gram−)) | pIC50 (Vibrio sp. (Gram−)) | pIC50 [4] | pIC50 [7] | pIC50 (E.coli (Gram−)) | MIC (Vibrio sp. (Gram−)) | other results
1 | IWDAIFHGAKHFLHRLVNPGGKDAVKDVQQKQ [Oreochromicin III, also recombinant or chemically synthesized] | 5.52 | 45% | Did not inhibit | MIC = 40 μM | 4.85 | Did not inhibit | MIC = 160 μM | 4.43 | MIC = 106 μM | 4.72 | Did not inhibit | Did not inhibit | 4.17 | – | – | – | – | levels of IFN-γ vs OVA or PBS alone (OVA [2]; splenocytes stimulated with OVA 10 μg/mL, dose dependent, p<0.001): significantly higher; total IgG titers compared to the negative control group (OVA [8]; OVA 5 μg + peptide 1.4 μg/animal, p<0.05): statistically significant differences
2 | FIHHIIGGLFSAGKAIHRLIRRRRR [Oreochromicin II, also recombinant or chemically synthesized] | 5.85 | – | MIC = 160 μM | MIC = 26.7 μM | 4.89 | MIC = 6.67 μM | MIC = 20 μM | 5.68 | MIC = 1.7 μM | 6.23 | MIC = 5 μM | MIC = 5 μM | 5.60 | 5.43 | 5.69 | 5.64 | MIC = 15 μM | increase in survival (RPS, relative percent of survival) (Aeromonas hydrophila; 1 μg per fish i.p. for 8 days): 48%; levels of secretion of IFN-γ vs OVA or PBS alone (OVA [2]; splenocytes stimulated with OVA, peptide 1.2 μg/animal, p<0.05): significantly higher; pIC50 (A. hydrophila (Gram−); read-out: IC50 (peptide concentration that produces 50% of bacterial growth inhibition)): 4.52
3 | FIHHIIGGLFSVGKHIHGLIHGH [Oreochromicin I, also recombinant or chemically synthesized] | 5.91 | 45% | Did not inhibit | MIC = 20 μM | 4.99 | MIC = 35 μM | MIC = 160 μM | 4.95 | MIC = 3 μM | 5.86 | MIC = 5 μM | MIC = 6.7 μM | 5.13 | 4.53 | 5.55 | 5.53 | MIC = 80 μM | specific IgM titer against MY32 vs PBS, MY32 and MY32 + peptide 10 μg/fish (MY32): statistically superior; titers of specific IgG2a against OVA vs OVA alone (OVA [8]; OVA 5 μg + peptide 1 μg/animal, 21 days after first immunization, p<0.05): significantly greater; specific total IgG titer to OVA vs negative control group (OVA [8]; OVA 5 μg + peptide 1 μg/animal, p<0.001): statistically superior
